# Source: the supplement of paper PMC4862054
# Test system: MCF-10A
# Assay: normalised response (% of control), CellTiter-Glo; higher = more viable cells (100 = DMSO, 0 = benzethonium chloride kill control)
# Details: incubation time: 72 h
# Outline: (§1)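 Breast cancer cell lines in 20 µl suspension were added to 384-well plates containing compound at 5 concentrations, spaced in 10-fold steps across a 10,000-fold range chosen for each compound, and incubated for 72 h. CellTox Green fluorescence was read at 485/520 nm, followed by CellTiter-Glo luminescence after 10 min at room temperature. Signals on each plate were normalised so that 0.1 % DMSO equals 100 and a positive kill control equals 0. Every value in the table is the normalised signal at one concentration of the series.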
row,SMILES,normalised response
1,Cc1[nH]c2ccccc2c1CCNCc1ccc(/C=C/C(=O)NO)cc1 [Panobinostat] (0.1 nM),96.2%
2,COCC1(CO)C(=O)C2CCN1CC2 (centres undefined) [Prima-1 Met] (1 nM),108%

# Test system: Hs578T
# Assay: as above
# Details: incubation time: 72 h
# Outline: as §1
row,SMILES,normalised response
1,C=C1C[C@@H]2[C@H](CC[C@]3(C)C(=O)CC[C@@H]23)[C@@]2(C)C=CC(=O)C=C12 [Exemestane] (1 nM),106%
2,O=C(Nc1ccncc1)C(=O)c1cn(Cc2ccc(Cl)cc2)c2ccccc12 [Indibulin] (1 nM),100%
3,NC(=O)c1ccc(I)c([N+](=O)[O-])c1 [Iniparib] (1 nM),90.9%
4,Oc1ccc2c(c1)CC[C@H](c1ccccc1)[C@@H]2c1ccc(OCCN2CCCC2)cc1 [Lasofoxifene] (0.1 nM),99.6%
5,Cc1ccc(NC(=O)c2ccc(CN3CCN(C)CC3)cc2)cc1Nc1nc(-c2cccnc2)cs1 [Masitinib] (1 nM),100%
6,O=C(Nc1cccnc1)N1CCC(Cc2cccc(Oc3ccc(C(F)(F)F)cn3)c2)CC1 [PF-3845] (1 nM),106%
7,Cc1[nH]c2ccccc2c1CCNCc1ccc(/C=C/C(=O)NO)cc1 [Panobinostat] (0.1 nM),91.8%
8,COCC1(CO)C(=O)C2CCN1CC2 (centres undefined) [Prima-1 Met] (1 nM),99.1%

# Test system: MDA-MB-453
# Assay: as above
# Details: incubation time: 72 h
# Outline: as §1
row,SMILES,normalised response
1,C=C1C[C@@H]2[C@H](CC[C@]3(C)C(=O)CC[C@@H]23)[C@@]2(C)C=CC(=O)C=C12 [Exemestane] (1 nM),108%
2,O=C(Nc1ccncc1)C(=O)c1cn(Cc2ccc(Cl)cc2)c2ccccc12 [Indibulin] (1 nM),113%
3,NC(=O)c1ccc(I)c([N+](=O)[O-])c1 [Iniparib] (1 nM),86.2%
4,Oc1ccc2c(c1)CC[C@H](c1ccccc1)[C@@H]2c1ccc(OCCN2CCCC2)cc1 [Lasofoxifene] (0.1 nM),115%
5,Cc1ccc(NC(=O)c2ccc(CN3CCN(C)CC3)cc2)cc1Nc1nc(-c2cccnc2)cs1 [Masitinib] (1 nM),110%
6,O=C(Nc1cccnc1)N1CCC(Cc2cccc(Oc3ccc(C(F)(F)F)cn3)c2)CC1 [PF-3845] (1 nM),117%
7,Cc1[nH]c2ccccc2c1CCNCc1ccc(/C=C/C(=O)NO)cc1 [Panobinostat] (0.1 nM),103%
8,COCC1(CO)C(=O)C2CCN1CC2 (centres undefined) [Prima-1 Met] (1 nM),116%

# Test system: HCC1599
# Assay: as above
# Details: incubation time: 72 h
# Outline: as §1
row,SMILES,normalised response
1,C=C1C[C@@H]2[C@H](CC[C@]3(C)C(=O)CC[C@@H]23)[C@@]2(C)C=CC(=O)C=C12 [Exemestane] (1 nM),112%
2,O=C(Nc1ccncc1)C(=O)c1cn(Cc2ccc(Cl)cc2)c2ccccc12 [Indibulin] (1 nM),113%
3,NC(=O)c1ccc(I)c([N+](=O)[O-])c1 [Iniparib] (1 nM),101%
4,Oc1ccc2c(c1)CC[C@H](c1ccccc1)[C@@H]2c1ccc(OCCN2CCCC2)cc1 [Lasofoxifene] (0.1 nM),104%
5,Cc1ccc(NC(=O)c2ccc(CN3CCN(C)CC3)cc2)cc1Nc1nc(-c2cccnc2)cs1 [Masitinib] (1 nM),119%
6,O=C(Nc1cccnc1)N1CCC(Cc2cccc(Oc3ccc(C(F)(F)F)cn3)c2)CC1 [PF-3845] (1 nM),95.8%
7,Cc1[nH]c2ccccc2c1CCNCc1ccc(/C=C/C(=O)NO)cc1 [Panobinostat] (0.1 nM),98.6%
8,COCC1(CO)C(=O)C2CCN1CC2 (centres undefined) [Prima-1 Met] (1 nM),101%

# Test system: HDQ-P1
# Assay: as above
# Details: incubation time: 72 h
# Outline: as §1
row,SMILES,normalised response
1,C=C1C[C@@H]2[C@H](CC[C@]3(C)C(=O)CC[C@@H]23)[C@@]2(C)C=CC(=O)C=C12 [Exemestane] (1 nM),101%
2,O=C(Nc1ccncc1)C(=O)c1cn(Cc2ccc(Cl)cc2)c2ccccc12 [Indibulin] (1 nM),106%
3,NC(=O)c1ccc(I)c([N+](=O)[O-])c1 [Iniparib] (1 nM),92.5%
4,Oc1ccc2c(c1)CC[C@H](c1ccccc1)[C@@H]2c1ccc(OCCN2CCCC2)cc1 [Lasofoxifene] (0.1 nM),104%
5,Cc1ccc(NC(=O)c2ccc(CN3CCN(C)CC3)cc2)cc1Nc1nc(-c2cccnc2)cs1 [Masitinib] (1 nM),100%
6,O=C(Nc1cccnc1)N1CCC(Cc2cccc(Oc3ccc(C(F)(F)F)cn3)c2)CC1 [PF-3845] (1 nM),103%
7,Cc1[nH]c2ccccc2c1CCNCc1ccc(/C=C/C(=O)NO)cc1 [Panobinostat] (0.1 nM),98.2%
8,COCC1(CO)C(=O)C2CCN1CC2 (centres undefined) [Prima-1 Met] (1 nM),108%

# Test system: MDA-MB-468
# Assay: as above
# Details: incubation time: 72 h
# Outline: as §1
row,SMILES,normalised response
1,C=C1C[C@@H]2[C@H](CC[C@]3(C)C(=O)CC[C@@H]23)[C@@]2(C)C=CC(=O)C=C12 [Exemestane] (1 nM),101%
2,O=C(Nc1ccncc1)C(=O)c1cn(Cc2ccc(Cl)cc2)c2ccccc12 [Indibulin] (1 nM),103%
3,NC(=O)c1ccc(I)c([N+](=O)[O-])c1 [Iniparib] (1 nM),94.8%
4,Oc1ccc2c(c1)CC[C@H](c1ccccc1)[C@@H]2c1ccc(OCCN2CCCC2)cc1 [Lasofoxifene] (0.1 nM),106%
5,Cc1ccc(NC(=O)c2ccc(CN3CCN(C)CC3)cc2)cc1Nc1nc(-c2cccnc2)cs1 [Masitinib] (1 nM),114%
6,O=C(Nc1cccnc1)N1CCC(Cc2cccc(Oc3ccc(C(F)(F)F)cn3)c2)CC1 [PF-3845] (1 nM),97.9%
7,Cc1[nH]c2ccccc2c1CCNCc1ccc(/C=C/C(=O)NO)cc1 [Panobinostat] (0.1 nM),94.4%
8,COCC1(CO)C(=O)C2CCN1CC2 (centres undefined) [Prima-1 Met] (1 nM),107%

# Test system: MDA-MB-231
# Assay: as above
# Details: incubation time: 72 h
# Outline: as §1
row,SMILES,normalised response
1,C=C1C[C@@H]2[C@H](CC[C@]3(C)C(=O)CC[C@@H]23)[C@@]2(C)C=CC(=O)C=C12 [Exemestane] (1 nM),105%
2,O=C(Nc1ccncc1)C(=O)c1cn(Cc2ccc(Cl)cc2)c2ccccc12 [Indibulin] (1 nM),102%
3,NC(=O)c1ccc(I)c([N+](=O)[O-])c1 [Iniparib] (1 nM),90.9%
4,Oc1ccc2c(c1)CC[C@H](c1ccccc1)[C@@H]2c1ccc(OCCN2CCCC2)cc1 [Lasofoxifene] (0.1 nM),106%
5,Cc1ccc(NC(=O)c2ccc(CN3CCN(C)CC3)cc2)cc1Nc1nc(-c2cccnc2)cs1 [Masitinib] (1 nM),97.9%
6,O=C(Nc1cccnc1)N1CCC(Cc2cccc(Oc3ccc(C(F)(F)F)cn3)c2)CC1 [PF-3845] (1 nM),110%
7,Cc1[nH]c2ccccc2c1CCNCc1ccc(/C=C/C(=O)NO)cc1 [Panobinostat] (0.1 nM),105%
8,COCC1(CO)C(=O)C2CCN1CC2 (centres undefined) [Prima-1 Met] (1 nM),101%

# Test system: CAL-85-1
# Assay: as above
# Details: incubation time: 72 h
# Outline: as §1
row,SMILES,normalised response
1,C=C1C[C@@H]2[C@H](CC[C@]3(C)C(=O)CC[C@@H]23)[C@@]2(C)C=CC(=O)C=C12 [Exemestane] (1 nM),97.2%
2,O=C(Nc1ccncc1)C(=O)c1cn(Cc2ccc(Cl)cc2)c2ccccc12 [Indibulin] (1 nM),106%
3,NC(=O)c1ccc(I)c([N+](=O)[O-])c1 [Iniparib] (1 nM),94.6%
4,Oc1ccc2c(c1)CC[C@H](c1ccccc1)[C@@H]2c1ccc(OCCN2CCCC2)cc1 [Lasofoxifene] (0.1 nM),95.4%
5,Cc1ccc(NC(=O)c2ccc(CN3CCN(C)CC3)cc2)cc1Nc1nc(-c2cccnc2)cs1 [Masitinib] (1 nM),98.7%
6,O=C(Nc1cccnc1)N1CCC(Cc2cccc(Oc3ccc(C(F)(F)F)cn3)c2)CC1 [PF-3845] (1 nM),101%
7,Cc1[nH]c2ccccc2c1CCNCc1ccc(/C=C/C(=O)NO)cc1 [Panobinostat] (0.1 nM),102%
8,COCC1(CO)C(=O)C2CCN1CC2 (centres undefined) [Prima-1 Met] (1 nM),101%

# Test system: MDA-MB-436
# Assay: as above
# Details: incubation time: 72 h
# Outline: as §1
row,SMILES,normalised response
1,C=C1C[C@@H]2[C@H](CC[C@]3(C)C(=O)CC[C@@H]23)[C@@]2(C)C=CC(=O)C=C12 [Exemestane] (1 nM),134%
2,O=C(Nc1ccncc1)C(=O)c1cn(Cc2ccc(Cl)cc2)c2ccccc12 [Indibulin] (1 nM),103%
3,NC(=O)c1ccc(I)c([N+](=O)[O-])c1 [Iniparib] (1 nM),87.1%
4,Oc1ccc2c(c1)CC[C@H](c1ccccc1)[C@@H]2c1ccc(OCCN2CCCC2)cc1 [Lasofoxifene] (0.1 nM),99.2%
5,Cc1ccc(NC(=O)c2ccc(CN3CCN(C)CC3)cc2)cc1Nc1nc(-c2cccnc2)cs1 [Masitinib] (1 nM),100%
6,O=C(Nc1cccnc1)N1CCC(Cc2cccc(Oc3ccc(C(F)(F)F)cn3)c2)CC1 [PF-3845] (1 nM),105%
7,Cc1[nH]c2ccccc2c1CCNCc1ccc(/C=C/C(=O)NO)cc1 [Panobinostat] (0.1 nM),98.9%
8,COCC1(CO)C(=O)C2CCN1CC2 (centres undefined) [Prima-1 Met] (1 nM),102%

# Test system: DU-4475
# Assay: as above
# Details: incubation time: 72 h
# Outline: as §1
row,SMILES,normalised response
1,C=C1C[C@@H]2[C@H](CC[C@]3(C)C(=O)CC[C@@H]23)[C@@]2(C)C=CC(=O)C=C12 [Exemestane] (1 nM),106%
2,O=C(Nc1ccncc1)C(=O)c1cn(Cc2ccc(Cl)cc2)c2ccccc12 [Indibulin] (1 nM),109%
3,NC(=O)c1ccc(I)c([N+](=O)[O-])c1 [Iniparib] (1 nM),93.8%
4,Oc1ccc2c(c1)CC[C@H](c1ccccc1)[C@@H]2c1ccc(OCCN2CCCC2)cc1 [Lasofoxifene] (0.1 nM),102%
5,Cc1ccc(NC(=O)c2ccc(CN3CCN(C)CC3)cc2)cc1Nc1nc(-c2cccnc2)cs1 [Masitinib] (1 nM),103%
6,O=C(Nc1cccnc1)N1CCC(Cc2cccc(Oc3ccc(C(F)(F)F)cn3)c2)CC1 [PF-3845] (1 nM),95.8%
7,Cc1[nH]c2ccccc2c1CCNCc1ccc(/C=C/C(=O)NO)cc1 [Panobinostat] (0.1 nM),99.7%
8,COCC1(CO)C(=O)C2CCN1CC2 (centres undefined) [Prima-1 Met] (1 nM),102%
